Measured values taken from ChEMBL document CHEMBL1201862, “PubChem BioAssay data set” (2004).
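48-hour exposure; five concentrations; linearly interpolated endpoints. Here, GI50 denotes the concentration required for 50% inhibition of growth.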 Calls of active or inactive are those of the source. Rule as the data show it: active = GI50 up to about 1.1 µM and inactive = higher.

What was measured:
Assay in all cases: inhibition of tumour cell growth, NCI panel, 48 h
OVCAR-4 = system: OVCAR-4
SF-539 = system: SF-539
CAKI-1 = system: CAKI-1
SR = system: SR
NCI-H23 = system: NCI-H23
OVCAR-8 = system: OVCAR-8
HL-60 = system: HL-60
ACHN = system: ACHN
DU-145 = system: DU-145
SK-MEL-2 = system: SK-MEL-2
KM12 = system: KM12
M14 = system: M14
Malme-3M = system: Malme-3M
SK-MEL-28 = system: SK-MEL-28
EKVX = system: EKVX
NCI/ADR-RES = system: NCI/ADR-RES
786-0 = system: 786-0
UO-31 = system: UO-31
CCRF-CEM = system: CCRF-CEM
BT-549 = system: BT-549

Measured: GI50

CC(=O)OC1CC[C@@]2(C)C(=CC[C@@H]3[C@@H]2CC[C@]2(C)C(OC(C)=O)[C@H](n4ccnc4)C[C@@H]32)C1 (some centres not stated)
inactive: OVCAR-4 20.9 µM | SF-539 15.3 µM | CAKI-1 49.1 µM | SR 16.1 µM | NCI-H23 37.5 µM | OVCAR-8 17.1 µM | HL-60 8.91 µM | ACHN 40.3 µM | DU-145 73.5 µM | SK-MEL-2 16.8 µM | KM12 16.7 µM | M14 17.2 µM | Malme-3M 14.6 µM | SK-MEL-28 17.7 µM | EKVX 37.7 µM | NCI/ADR-RES 25.8 µM | 786-0 30.4 µM | UO-31 36.6 µM | CCRF-CEM 11.7 µM

COc1ccc2c(c1)CN1C(=N2)CSC1c1cccc(Br)c1 (configuration not stated)
inactive: OVCAR-4 36.9 µM | SF-539 15.4 µM | CAKI-1 16.3 µM | SR 5.33 µM | NCI-H23 17.7 µM | OVCAR-8 69.8 µM | HL-60 3.58 µM | ACHN 19.8 µM | SK-MEL-2 24.2 µM | KM12 19.1 µM | M14 52.1 µM | Malme-3M 60.1 µM | SK-MEL-28 11.9 µM | BT-549 26.2 µM | EKVX 22.1 µM | NCI/ADR-RES 48.8 µM | 786-0 17.8 µM | UO-31 17.5 µM

N#C/C(=C/C=C/c1ccco1)C(N)=O
inactive: SF-539 > 10 µM | CAKI-1 > 10 µM | OVCAR-8 > 10 µM | ACHN > 10 µM | DU-145 > 10 µM | SK-MEL-2 > 10 µM | KM12 > 10 µM | M14 > 10 µM | Malme-3M > 10 µM | SK-MEL-28 > 10 µM | EKVX > 10 µM | NCI/ADR-RES > 10 µM | 786-0 > 10 µM | UO-31 > 10 µM

Cc1ccc(OCC2OC(n3cnc4c(N(C)C)nc(Br)nc43)CC2Oc2ccc(C)cc2)cc1 (configuration not stated)
inactive: OVCAR-4 > 100 µM | SF-539 > 100 µM | CAKI-1 > 100 µM | NCI-H23 > 100 µM | OVCAR-8 > 100 µM | HL-60 > 100 µM | ACHN > 100 µM | DU-145 > 100 µM | SK-MEL-2 > 100 µM | KM12 > 100 µM | M14 > 100 µM | Malme-3M > 100 µM | SK-MEL-28 > 100 µM | BT-549 > 100 µM | EKVX > 100 µM | NCI/ADR-RES > 100 µM | 786-0 > 100 µM | UO-31 > 100 µM | CCRF-CEM > 100 µM

CCOC(=O)CCC(NC(=O)C(N)c1ccc([N+](=O)[O-])cc1)C(=O)NC(CCC(=O)OCC)C(=O)OCC (configuration not stated)
inactive: SR > 100 µM | NCI-H23 > 100 µM | OVCAR-8 > 100 µM | HL-60 > 100 µM | ACHN > 100 µM | SK-MEL-2 > 100 µM | KM12 > 100 µM | M14 > 100 µM | Malme-3M > 100 µM | SK-MEL-28 > 100 µM | BT-549 > 100 µM | EKVX > 100 µM | 786-0 > 100 µM | UO-31 > 100 µM

NC1c2c(Br)sc(N3CCCC3)c2C(=O)C1O (configuration not stated)
inactive: OVCAR-4 > 50 µM | SF-539 > 50 µM | CAKI-1 > 50 µM | NCI-H23 > 50 µM | OVCAR-8 > 50 µM | HL-60 > 50 µM | ACHN > 50 µM | DU-145 > 50 µM | SK-MEL-2 > 50 µM | KM12 > 50 µM | M14 > 50 µM | Malme-3M > 50 µM | BT-549 > 50 µM | EKVX > 50 µM | NCI/ADR-RES > 50 µM | 786-0 > 50 µM | UO-31 > 50 µM | CCRF-CEM > 50 µM

C[C@@H]1S[C@H](c2c(Cl)cccc2Cl)N2Cc3ccccc3N=C12
inactive: OVCAR-4 > 100 µM | SF-539 > 100 µM | CAKI-1 > 100 µM | SR > 100 µM | NCI-H23 > 100 µM | HL-60 48.4 µM | ACHN > 100 µM | DU-145 > 100 µM | SK-MEL-2 > 100 µM | KM12 85.5 µM | M14 > 100 µM | SK-MEL-28 > 100 µM | BT-549 > 100 µM | EKVX 42.9 µM | 786-0 > 100 µM | UO-31 > 100 µM | CCRF-CEM > 100 µM

CCN(CC)CCOC(NC(C)=O)(c1ccccc1)c1ccccc1
inactive: OVCAR-4 > 100 µM | SF-539 > 100 µM | SR > 100 µM | NCI-H23 > 100 µM | OVCAR-8 > 100 µM | HL-60 > 100 µM | ACHN > 100 µM | DU-145 > 100 µM | KM12 > 100 µM | M14 > 100 µM | Malme-3M > 100 µM | SK-MEL-28 > 100 µM | EKVX > 100 µM | NCI/ADR-RES > 100 µM | 786-0 > 100 µM | UO-31 > 100 µM | CCRF-CEM > 100 µM

Cc1ccc(S(=O)(=O)N2CCSCCSCCN(S(=O)(=O)c3ccc(C)cc3)CCN(S(=O)(=O)c3ccc(C)cc3)CC2)cc1
inactive: OVCAR-4 > 100 µM | SF-539 > 100 µM | CAKI-1 > 100 µM | NCI-H23 > 100 µM | OVCAR-8 > 100 µM | HL-60 > 100 µM | ACHN > 100 µM | DU-145 > 100 µM | SK-MEL-2 > 100 µM | KM12 > 100 µM | M14 > 100 µM | Malme-3M > 100 µM | SK-MEL-28 > 100 µM | BT-549 > 100 µM | EKVX > 100 µM | NCI/ADR-RES > 100 µM | 786-0 > 100 µM | UO-31 > 100 µM | CCRF-CEM > 100 µM

O=C(CSCC(=O)N/N=C/c1ccncc1)N/N=C/c1ccncc1
inactive: OVCAR-4 > 100 µM | SF-539 > 100 µM | CAKI-1 > 100 µM | NCI-H23 > 100 µM | OVCAR-8 > 100 µM | HL-60 > 100 µM | ACHN > 100 µM | DU-145 > 100 µM | SK-MEL-2 > 100 µM | KM12 > 100 µM | M14 > 100 µM | Malme-3M > 100 µM | SK-MEL-28 > 100 µM | BT-549 > 100 µM | EKVX > 100 µM | NCI/ADR-RES > 100 µM | 786-0 > 100 µM | UO-31 > 100 µM | CCRF-CEM > 100 µM

O=C(/C=C/c1ccc(Cl)cc1)Oc1ccc(C=C2CCC/C(=C\c3ccc(OC(=O)/C=C/c4ccc(Cl)cc4)cc3)C2=O)cc1
inactive: OVCAR-4 > 100 µM | SF-539 > 100 µM | CAKI-1 > 100 µM | NCI-H23 > 100 µM | OVCAR-8 > 100 µM | ACHN > 100 µM | DU-145 > 100 µM | SK-MEL-2 > 100 µM | KM12 > 100 µM | M14 > 100 µM | Malme-3M > 100 µM | SK-MEL-28 > 100 µM | BT-549 > 100 µM | EKVX > 100 µM | NCI/ADR-RES > 100 µM | 786-0 > 100 µM | UO-31 > 100 µM

O=C(NCCN(CCNC(=O)c1cccc(=O)n1O)CCN(CCNC(=O)c1cccc(=O)n1O)CCNC(=O)c1cccc(=O)n1O)c1cccc(=O)n1O
inactive: OVCAR-4 > 100 µM | SF-539 > 100 µM | CAKI-1 > 100 µM | NCI-H23 > 100 µM | OVCAR-8 > 100 µM | HL-60 44.2 µM | ACHN > 100 µM | DU-145 > 100 µM | SK-MEL-2 > 100 µM | KM12 > 100 µM | M14 > 100 µM | Malme-3M 60.8 µM | SK-MEL-28 > 100 µM | BT-549 > 100 µM | NCI/ADR-RES > 100 µM | 786-0 > 100 µM | UO-31 > 100 µM | CCRF-CEM > 100 µM

NC1=NCC(CN2CCCCC2)O1 (configuration not stated)
inactive: SF-539 > 100 µM | CAKI-1 > 100 µM | SR > 100 µM | OVCAR-8 > 100 µM | HL-60 > 100 µM | ACHN > 100 µM | KM12 > 100 µM | M14 > 100 µM | Malme-3M > 100 µM | SK-MEL-28 > 100 µM | BT-549 > 100 µM | EKVX > 100 µM | NCI/ADR-RES > 100 µM | 786-0 > 100 µM | UO-31 > 100 µM | CCRF-CEM > 100 µM

CC(=O)NNc1nc(C)c(C(/C=C/c2ccc([N+](=O)[O-])cc2)=N/NC(N)=O)s1
inactive: OVCAR-4 > 100 µM | SF-539 > 100 µM | CAKI-1 > 100 µM | SR > 100 µM | NCI-H23 > 100 µM | OVCAR-8 > 100 µM | ACHN > 100 µM | DU-145 > 100 µM | SK-MEL-2 > 100 µM | KM12 > 100 µM | M14 > 100 µM | Malme-3M > 100 µM | SK-MEL-28 > 100 µM | BT-549 > 100 µM | EKVX 44.8 µM | NCI/ADR-RES > 100 µM | 786-0 > 100 µM | UO-31 > 100 µM | CCRF-CEM > 100 µM

CC(Nc1cccc(Cl)c1)c1ccncc1 (configuration not stated)
inactive: OVCAR-4 > 100 µM | SF-539 > 100 µM | CAKI-1 40.7 µM | NCI-H23 71.3 µM | OVCAR-8 88.3 µM | ACHN 87.1 µM | DU-145 94.4 µM | SK-MEL-2 > 100 µM | KM12 > 100 µM | M14 > 100 µM | Malme-3M > 100 µM | SK-MEL-28 > 100 µM | BT-549 > 100 µM | EKVX 57.9 µM | NCI/ADR-RES 51.3 µM | 786-0 > 100 µM | UO-31 7.21 µM | CCRF-CEM > 100 µM
